Data as given in US20240398844A1, “PHENYLCOUMARINS FOR TREATING INFLAMMATION” (Ohio State Innovation Foundation, priority 2021, published 2024).

Tests used:
PPAR-γ = biological target: T1, PPAR-γ (Homo sapiens, UniProt P37231); test: PPAR-γ ELISA Assay in HeLa cells (in vitro PPAR-γ assay); assay type: cell-based; conditions: 50 μg/mL; for activation at 50 µg/mL: Table 2; for % Activation PPAR-γ: Table 4
T1 construct: endogenous in cells; host or cells: HeLa
T1 sequence (P37231 1-505): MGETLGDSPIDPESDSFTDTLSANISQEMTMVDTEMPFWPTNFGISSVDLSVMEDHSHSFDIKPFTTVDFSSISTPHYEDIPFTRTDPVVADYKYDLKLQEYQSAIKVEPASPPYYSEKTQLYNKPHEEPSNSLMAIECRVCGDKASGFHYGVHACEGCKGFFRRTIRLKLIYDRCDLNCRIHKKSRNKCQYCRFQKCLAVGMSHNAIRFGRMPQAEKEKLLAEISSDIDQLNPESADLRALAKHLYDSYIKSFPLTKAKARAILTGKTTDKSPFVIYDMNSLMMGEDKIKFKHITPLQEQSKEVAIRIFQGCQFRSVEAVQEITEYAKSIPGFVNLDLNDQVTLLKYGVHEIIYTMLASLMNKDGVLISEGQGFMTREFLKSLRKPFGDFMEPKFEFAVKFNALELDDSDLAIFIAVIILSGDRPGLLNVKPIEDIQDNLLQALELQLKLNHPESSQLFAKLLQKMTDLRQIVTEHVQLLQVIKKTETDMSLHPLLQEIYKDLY
Method: In addition to the Western blot, the diverse library was also screened in the in vitro PPAR-γ assay. […] The compounds were tested at 50 μg/mL according to the protocol detailed in section 3.2.3.

HbA1C = test: Diabetic zebrafish Western blot, HbA1C expression; assay type: in vivo; conditions: diabetic zebrafish, 10 μM, library screen, FIG. 2 / FIG. 11
Method: (§1) Alloxan-induced diabetic zebrafish were treated with compounds for immunoblot to validate the newly developed animal model, determine the antidiabetic potential of natural product leads, evaluate glucose metabolism, and discover possible mechanisms of action.
(§2) At 72 hpf, naturally dechorionated zebrafish were sorted into a 24-well microplate with 10 fish per well. Type 2 diabetes was induced with the diabetogenic agent alloxan at a dose of 0.5 mg/mL in system water for 3 hours. […] After 3 hours of treatment with natural product samples, 10 mg/mL D-glucose was administered in system water for 30 minutes, followed by 1 hour in fresh system water to metabolize the glucose and natural product leads. Upon completion of the 4-phase treatment cycle, zebrafish treatment groups were snap frozen into individual microcentrifuge tubes on dry ice, stored overnight at −80° C., thawed, homogenized with 2 μL PBS per animal, and centrifuged at 4° C. for 1 hour at 17,000 rpm. Protein content of homogenate supernatant was determined using the Pierce BCA Protein Assay kit (Pierce Biotechnology) and bovine serum albumin (BSA) standard curve. Absorbance of protein solutions from zebrafish homogenates and serial dilutions of the BSA standard were measured at 544 nm, using a FLUOstar Optima plate reader (BMG Labtechnologies GmbH, Inc.). Homogenates were analyzed by Western blot. Equal amounts of protein (20 μg) were combined with 4× lithium dodecyl sulphate (LDS) loading buffer (NuPAGE, Life Technologies, Carlsbad, CA, USA), brought to volume (15 μL) with PBS, and heated to 95° C. for 5 minutes. Proteins were resolved using NuPAGE Bis-Tris 4-12% gradient sodium dodecyl sulfate polyacrylamide gel electrophoresis (SDS-PAGE) gels together with SeeBlue Plus2 Pre-Stained Standard Ladder (Life Technologies).
(§3) Electrophoresis was performed using NuPAGE MES SDS Running Buffer and XCell SureLock Mini-Cell Electrophoresis System (Life Technologies). Separated proteins were transferred from the gel to a polyvinylidene fluoride (PVDF) membrane using tris buffered saline with Tween-20 (TBST) buffer. The blots were blocked in 3% BSA in TBST and subsequently probed using primary antibodies (1:1000 in 1% BSA in TBST) against each target overnight (Table 1). The secondary, horseradish peroxidase (HRP) conjugated antibodies (1:2000) were obtained from Santa Cruz Biotechnology Inc., (Santa Cruz, CA, USA). Conjugated antibodies were detected using SuperSignal West Femto chemiluminescent substrate from Pierce Biotechnology. Western blots were visualized, and images captured using a luminometer and LumiAnalyst 3.0 software (Boehringer-Mannheim, Mannheim, Germany). Band density was quantified for proteins of interest using ImageJ Gel Analysis.
(§4) In the case of duplicate blots, the band density results were expressed in bar graphs as the mean±standard error of the mean (SEM) of two independent experiments. Due to the labor- and time-intensive aspect of Western blot analysis with multiple target proteins, a maximum of two independent immunoblot experiments were performed per compared sample set. […] Additionally, treatment groups were also evaluated versus the diabetic, untreated control group for significance by Student's f-test and indicated in the bar graphs with p values represented by *p<0.05, **p<0.01, and ***p<0.001. […]

PEPCK = test: Diabetic zebrafish Western blot, PEPCK expression; assay type: in vivo; conditions: 10 μM, library screen, FIG. 4 / FIG. 11
Method: as §1
(§5) At 72 hpf, naturally dechorionated zebrafish were sorted into a 24-well microplate with 10 fish per well. Type 2 diabetes was induced with the diabetogenic agent alloxan at a dose of 0.5 mg/mL in system water for 3 hours. The incubation solution was changed to 0.01% DMSO in system water with compounds at concentrations of 20 μg/mL or […], respectively. After 3 hours of treatment with natural product samples, 10 mg/mL D-glucose was administered in system water for 30 minutes, followed by 1 hour in fresh system water to metabolize the glucose and natural product leads. Upon completion of the 4-phase treatment cycle, zebrafish treatment groups were snap frozen into individual microcentrifuge tubes on dry ice, stored overnight at −80° C., thawed, homogenized with 2 μL PBS per animal, and centrifuged at 4° C. for 1 hour at 17,000 rpm. Protein content of homogenate supernatant was determined using the Pierce BCA Protein Assay kit (Pierce Biotechnology) and bovine serum albumin (BSA) standard curve. Absorbance of protein solutions from zebrafish homogenates and serial dilutions of the BSA standard were measured at 544 nm, using a FLUOstar Optima plate reader (BMG Labtechnologies GmbH, Inc.). Homogenates were analyzed by Western blot. Equal amounts of protein (20 μg) were combined with 4× lithium dodecyl sulphate (LDS) loading buffer (NuPAGE, Life Technologies, Carlsbad, CA, USA), brought to volume (15 μL) with PBS, and heated to 95° C. for 5 minutes. Proteins were resolved using NuPAGE Bis-Tris 4-12% gradient sodium dodecyl sulfate polyacrylamide gel electrophoresis (SDS-PAGE) gels together with SeeBlue Plus2 Pre-Stained Standard Ladder (Life Technologies).
as §3, with “Western blots were visualized, and images captured using a luminometer and LumiAnalyst 3.0 software (Boehringer-Mannheim, Mannheim, Germany).” left out, “Analysis. […]” for “Analysis.”

NFκB p65 = test: Diabetic zebrafish Western blot, NFκB expression; assay type: in vivo; conditions: diabetic zebrafish, 10 μM, FIG. 5
Method: as §1, §2, §3, §4

GLUT-4 = test: Diabetic zebrafish Western blot, GLUT-4 expression; assay type: in vivo; conditions: 10 μM, FIG. 5
Method: as §1
as §5, with “Proteins were resolved using NuPAGE Bis-Tris 4-12% gradient sodium dodecyl sulfate polyacrylamide gel electrophoresis (SDS-PAGE) gels together with SeeBlue Plus2 Pre-Stained Standard Ladder (Life Technologies).” left out
Electrophoresis was performed using NuPAGE MES SDS Running Buffer and XCell SureLock Mini-Cell Electrophoresis System (Life Technologies). […] Conjugated antibodies were detected using SuperSignal West Femto chemiluminescent substrate from Pierce Biotechnology. […] Band density was quantified for proteins of interest using ImageJ Gel Analysis. […]

Oc1cccc(CCc2ccc3c(c2)OCO3)c1 [Compound 16]
activation at 50 µg/mL (PPAR-γ): 0%

COc1ccc(-c2cc(=O)c3c(O)cc(O)cc3o2)cc1 [Compound 17]
activation at 50 µg/mL (PPAR-γ): 0%

COc1cc(O)c2c(c1)OC(c1ccc(O)cc1)CC2=O (stereo not drawn) [Compound 19]
activation at 50 µg/mL (PPAR-γ): 77% | HbA1C expression (Western blot band density) (HbA1C): lowest glycated hemoglobin levels

O=c1cc(-c2ccc(O)cc2)oc2c([C@H]3OC(CO)[C@@H](O)[C@H](O)C3O)c(O)cc(O)c12 (stereo partly drawn) [Compound 21]
activation at 50 µg/mL (PPAR-γ): 57% | HbA1C expression (Western blot band density) (HbA1C): lowest glycated hemoglobin levels

COc1cc(O[C@@H]2OC(CO)[C@H](O)[C@H](O)C2O)c2c(-c3ccc(O)c(O)c3)cc(=O)oc2c1 (stereo partly drawn) [Compound 22]
PEPCK expression (Western blot band density) (PEPCK): 31>rosiglitazone>22>23 and greatest PEPCK expression | NFκB expression (Western blot) (NFκB p65): excellent inhibition of NFκB expression | activation at 50 µg/mL (PPAR-γ): 21% | % Activation PPAR-γ (PPAR-γ): 21% | GLUT-4 expression (Western blot) (GLUT-4): strong GLUT-4 expression

COc1cc(O[C@@H]2OC(CO)[C@@H](O)[C@H](O)C2O)c2c(-c3ccc(O)c(O)c3)cc(=O)oc2c1 (stereo partly drawn) [Compound 23]
PEPCK expression (Western blot band density) (PEPCK): 31>rosiglitazone>22>23 | NFκB expression (Western blot) (NFκB p65): excellent inhibition of NFκB expression | activation at 50 µg/mL (PPAR-γ): 145% | % Activation PPAR-γ (PPAR-γ): 145% | PPAR-γ activity in the in vitro assay (in words) (PPAR-γ; versus positive control rosiglitazone): top performers | GLUT-4 expression (Western blot) (GLUT-4): strong GLUT-4 expression

CC(C)(O)CCC(=O)[C@](C)(O)[C@H]1[C@H](O)C[C@@]2(C)C3CC=C4[C@@H](CC(O)[C@H](O[C@@H]5OC(CO)[C@@H](O)[C@H](O)C5O)C4(C)C)C3C(=O)C[C@@]12C (stereo partly drawn) [Compound 27]
activation at 50 µg/mL (PPAR-γ): 65%

C[C@]12C[C@@H](O)CC3(CCC4[C@@](C)(CCC[C@@]4(C)C(=O)O[C@@H]4OC(CO)[C@@H](O[C@@H]5OC[C@H](O)[C@H](O)C5O)[C@H](O)C4O)C3C(=O)O1)C2 (stereo partly drawn) [Compound 28]
activation at 50 µg/mL (PPAR-γ): 0%

C=C1CC[C@H]2C(=C)CC[C@H]3C(=C)C(=O)O[C@@H]3[C@@H]12 [Compound 29]
activation at 50 µg/mL (PPAR-γ): 0%

C/C=C/C1=CC=C/C(=C2/C(=O)CCNC2=O)O1 [Compound 30]
activation at 50 µg/mL (PPAR-γ): 37%
